According to PMC10035947, “Development of novel anilinoquinazoline-based carboxylic acids as non-classical carbonic anhydrase IX and XII inhibitors” (Journal of Enzyme Inhibition and Medicinal Chemistry, 2023):

Legend:
HL-60(TB) = experiment: NCI SRB assay; format: cell-based, human; settings: HL-60(TB)
RPMI-8226 = experiment: NCI SRB assay; format: cell-based, human
HOP-92 = experiment: NCI SRB assay; format: cell-based, human
NCI-H322M = experiment: NCI SRB assay; format: cell-based, human
NCI-H460 = experiment: NCI SRB assay; format: cell-based, human
COLO 205 = experiment: NCI SRB assay; format: cell-based, human
HCC-2998 = experiment: NCI SRB assay; format: cell-based, human
HCT-15 = experiment: NCI SRB assay; format: cell-based, human
HT29 = experiment: NCI SRB assay; format: cell-based, human
KM12 = experiment: NCI SRB assay; format: cell-based, human
SF-268 = experiment: NCI SRB assay; format: cell-based, human; settings: SF-268, 1.00E-5 Molar
SF-539 = experiment: NCI SRB assay; format: cell-based, human
SNB-19 = experiment: NCI SRB assay; format: cell-based, human
SNB-75 = experiment: NCI SRB assay; format: cell-based, human
U251 = experiment: NCI SRB assay; format: cell-based, human
MDA-MB-435 = experiment: NCI SRB assay; format: cell-based
SK-MEL-2 = experiment: NCI SRB assay; format: cell-based, human
SK-MEL-28 = experiment: NCI SRB assay; format: cell-based, human
UACC-257 = experiment: NCI SRB assay; format: cell-based, human
UACC-62 = experiment: NCI SRB assay; format: cell-based, human
IGROV1 = experiment: NCI SRB assay; format: cell-based, human
OVCAR-4 = experiment: NCI SRB assay; format: cell-based, human
ACHN = experiment: NCI SRB assay; format: cell-based, human
CAKI-1 = experiment: NCI SRB assay; format: cell-based, human
TK-10 = experiment: NCI SRB assay; format: cell-based, human
HS 578 T = experiment: NCI SRB assay; format: cell-based, human
T-47D = experiment: NCI SRB assay; format: cell-based, human
[1] = system: 59 human cancer cell lines representing nine tumour subpanels; experiment: NCI SRB assay, panel and subpanel summaries; settings: all cell lines

Cc1cccc(-c2nc(Nc3ccccc3C(=O)O)c3ccccc3n2)c1 [6a, 2-((2-(m-Tolyl)quinazolin-4-yl)amino)benzoic acid]
GI% (HL-60(TB); 10 μM): 60%
Growth Percent (HL-60(TB); 1.00E-5 Molar): 39.37%
GI% (RPMI-8226; RPMI-8226, 10 μM): 71%
Growth Percent (RPMI-8226; RPMI-8226, 1.00E-5 Molar): 28.59%
GI% (HOP-92; HOP-92, 10 μM): 105%
Growth Percent (HOP-92; HOP-92, 1.00E-5 Molar): -5.02%
GI% (NCI-H322M; 10 μM): 52%
Growth Percent (NCI-H322M; 1.00E-5 Molar): 48.74%
GI% (NCI-H460; NCI-H460, 10 μM): 81%
Growth Percent (NCI-H460; NCI-H460, 1.00E-5 Molar): 19.15%
GI% (COLO 205; COLO 205, 10 μM): – (Only GI% higher than 20% are shown)
Growth Percent (COLO 205; COLO 205, 1.00E-5 Molar): 120.57%
GI% (HCC-2998; HCC-2998, 10 μM): 73%
Growth Percent (HCC-2998; HCC-2998, 1.00E-5 Molar): 27.10%
GI% (HCT-15; HCT-15, 10 μM): 86%
Growth Percent (HCT-15; HCT-15, 1.00E-5 Molar): 14.29%
GI% (HT29; HT29, 10 μM): 60%
Growth Percent (HT29; HT29, 1.00E-5 Molar): 39.66%
GI% (KM12; KM12, 10 μM): 70%
Growth Percent (KM12; KM12, 1.00E-5 Molar): 29.97%
Growth Percent (SF-268): 37.50%
GI% (SF-539; SF-539, 10 μM): 52%
Growth Percent (SF-539; SF-539, 1.00E-5 Molar): 47.66%
GI% (SNB-19; SNB-19, 10 μM): 79%
Growth Percent (SNB-19; SNB-19, 1.00E-5 Molar): 21.25%
GI% (SNB-75; SNB-75, 10 μM): 45%
Growth Percent (SNB-75; SNB-75, 1.00E-5 Molar): 55.27%
GI% (U251; U251, 10 μM): 73%
Growth Percent (U251; U251, 1.00E-5 Molar): 26.61%
GI% (MDA-MB-435; MDA-MB-435, 10 μM): 55%
Growth Percent (MDA-MB-435; MDA-MB-435, 1.00E-5 Molar): 44.63%
GI% (SK-MEL-2; SK-MEL-2, 10 μM): 34%
Growth Percent (SK-MEL-2; SK-MEL-2, 1.00E-5 Molar): 66.01%
GI% (SK-MEL-28; SK-MEL-28, 10 μM): 50%
Growth Percent (SK-MEL-28; SK-MEL-28, 1.00E-5 Molar): 49.95%
GI% (UACC-257; UACC-257, 10 μM): 51%
Growth Percent (UACC-257; UACC-257, 1.00E-5 Molar): 49.24%
GI% (UACC-62; UACC-62, 10 μM): 72%
Growth Percent (UACC-62; UACC-62, 1.00E-5 Molar): 28.00%
GI% (IGROV1; IGROV1, 10 μM): 41%
Growth Percent (IGROV1; IGROV1, 1.00E-5 Molar): 59.24%
GI% (OVCAR-4; OVCAR-4, 10 μM): 58%
Growth Percent (OVCAR-4; OVCAR-4, 1.00E-5 Molar): 41.88%
GI% (ACHN; 10 μM): 63%
Growth Percent (ACHN; 1.00E-5 Molar): 36.44%
GI% (CAKI-1; CAKI-1, 10 μM): 48%
Growth Percent (CAKI-1; CAKI-1, 1.00E-5 Molar): 52.39%
GI% (TK-10; TK-10, 10 μM): – (Only GI% higher than 20% are shown)
Growth Percent (TK-10; TK-10, 1.00E-5 Molar): 85.85%
GI% (HS 578 T; HS 578 T, 10 μM): 84%
Growth Percent (HS 578 T; HS 578T, 1.00E-5 Molar): 16.61%
GI% (T-47D; 10 μM): 73%
Growth Percent (T-47D; 1.00E-5 Molar): 26.79%
Mean GI % ([1]; 10 μM): 63%
Mean Growth Percent ([1]; 1.00E-5 Molar): 37.30%
